{
  "source": "patent US10995363B2",
  "about": "“Nucleotide analogs” (ABBOTT MOLECULAR INC., priority 2013, dated 2021)",
  "key": {"[1]": {"target": "T1, Therminator II DNA polymerase (Thermococcus sp., UniProt Q56366, A485L/D141A/E143A/Y409V)", "T1 construct": "purchased New England BioLabs", "T1 sequence (Q56366 whole entry D141A/E143A/Y409V/A485L)": "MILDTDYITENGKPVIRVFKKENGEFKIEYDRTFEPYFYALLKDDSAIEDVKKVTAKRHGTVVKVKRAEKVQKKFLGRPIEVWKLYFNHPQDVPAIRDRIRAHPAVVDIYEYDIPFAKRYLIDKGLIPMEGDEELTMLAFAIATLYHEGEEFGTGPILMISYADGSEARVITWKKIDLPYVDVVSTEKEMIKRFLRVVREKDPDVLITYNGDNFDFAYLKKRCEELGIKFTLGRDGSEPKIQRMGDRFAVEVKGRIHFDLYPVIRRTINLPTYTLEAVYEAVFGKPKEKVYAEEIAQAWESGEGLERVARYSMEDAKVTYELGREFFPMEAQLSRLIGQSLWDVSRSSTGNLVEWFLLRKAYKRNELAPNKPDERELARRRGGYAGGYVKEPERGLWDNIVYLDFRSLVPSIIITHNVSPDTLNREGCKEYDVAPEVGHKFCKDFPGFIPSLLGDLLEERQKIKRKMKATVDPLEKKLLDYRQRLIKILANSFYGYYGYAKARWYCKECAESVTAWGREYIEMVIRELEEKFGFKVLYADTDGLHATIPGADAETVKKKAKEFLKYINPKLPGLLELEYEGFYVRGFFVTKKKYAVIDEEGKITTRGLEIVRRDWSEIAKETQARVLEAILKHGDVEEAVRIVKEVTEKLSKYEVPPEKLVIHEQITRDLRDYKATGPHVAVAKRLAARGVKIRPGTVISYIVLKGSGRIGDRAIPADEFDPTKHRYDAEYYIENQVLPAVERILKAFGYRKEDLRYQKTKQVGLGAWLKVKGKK", "assay": "Polymerase extension assay: incorporation of 3′-O-propargyl-dNTP at the 3′ end of a primer on KRAS template", "type": "biochemical, Thermococcus sp. 9∘N", "conditions": "2 mM MnCl2, KRAS template, 35 cycles, size analysis by gel electrophoresis", "method": "During the development of embodiments of the technology provided herein, experiments were conducted to assess the incorporation of 3′-O-propargyl-dNTPs into a nucleic acid by a polymerase. In particular, experiments were conducted to evaluate the accurate incorporation of 3′-O-propargyl-dNTPs into a nucleic acid and to evaluate the terminating activity of the 3′-O-propargyl-dNTPs. To assess these characteristics of the nucleotide analogs provided herein, polymerase extension assays were conducted using a template nucleic acid having a sequence from human KRAS (e.g., KRAS exon 2 and flanking intron sequences) and a complementary primer (Table 2).\nTo test incorporation of a 3′-O-propargyl-dTTP into a nucleic acid, a polymerase extension reaction mix was assembled comprising 20 mM Tris-HCl, 10 mM (NH4)SO4, 10 mM KCl, 2 mM MnCl2, 0.1% Triton X-100, 200 μmol 3′-O-propargyl-dTTP, 6.25 μmol of primer R_ke2_trP1_T_bio (SEQ ID NO: 2), and 2 units of Therminator II DNA polymerase (New England BioLabs) in a 25-μl final reaction volume. A volume of 0.5 μmol of the KRAS template (SEQ ID NO: 1) was used as template (Table 2). The polymerase extension reaction was performed using a temperature cycling profile comprising exposing the reaction to a temperature of 95° C. for 2 minutes followed by 35 cycles of 95° C. for 15 seconds, 55° C. for 25 seconds, and 65° C. for 35 seconds.\n(§1) After the polymerase extension reaction, 1 μl of the reaction mix was used directly for nucleic acid size analysis by gel electrophoresis (e.g., using an Agilent 2100 Bioanalyzer and High Sensitivity DNA Assay Chip).\nAdditional polymerase extension experiments were performed using the reaction conditions described above and replacing the 3′-O-propargyl-dTTP and the primer R_ke2_trP1_T_bio with 3′-O-propargyl-dATP and the primer R_ke2_trP1_A bio (SEQ ID NO: 3); 3′-O-propargyl-dCTP and the primer R_ke2_trP1_C bio (SEQ ID NO: 5); and 3′-O-propargyl dGTP and the primer R_ke2_trP1_G bio (SEQ ID NO: 4)."}, "[2]": {"target": "T1, Therminator II DNA polymerase", "assay": "Ladder fragment generation with natural dNTPs and one 3′-O-propargyl-dNTP", "type": "biochemical, Thermococcus sp. 9∘N", "conditions": "natural dNTPs plus one 3′-O-propargyl-dNTP, KRAS template, 50 cycles", "method": "During the development of embodiments of the technology provided herein, experiments were conducted to assess using the nucleotide analogs of the present technology to generate nucleic acid fragments that terminate at base-specific positions. In particular, reaction mixtures were produced and tested that included both natural dNTPs and each of the 3′-O-propargyl-dNTPs individually.\nTo test the fragment generation by 3′-O-propargyl-dTTP, a DNA fragment generation reaction mix was prepared comprising 20 mM Tris-HCl, 10 mM (NH4)SO4, 10 mM KCl, 2 mM MnCl2, 0.1% Triton X-100, 1000 μmol dATP, 1000 μmol dCTP, 1000 μmol dGTP, 1000 μmol dTTP, 200 μmol 3′-O-propargyl-dTTP, 6.25 μmol of primer R_ke2_trP1_T_bio (SEQ ID NO: 2), and 2 units of THERMINATOR II DNA polymerase (New England BioLabs) in a 25-μl final reaction volume. A volume of 0.5 μmol of the KRAS template (SEQ ID NO: 1) was used as template. The polymerase extension reaction was performed using a temperature cycling profile comprising exposing the reaction to a temperature of 95° C. for 2 minutes followed by 50 cycles of 95° C. for 15 seconds, 55° C. for 25 seconds, and 65° C. for 35 seconds.\nas §1\nAdditional polymerase extension experiments were performed using the reaction conditions described above and replacing the 3′-O-propargyl-dTTP with 3′-O-propargyl-dATP, 3′-O-propargyl-dCTP, or 3′-O-propargyl dGTP."}},
  "data": [
    {"smiles": "C#CCO[C@H]1C[C@H](n2cc(C)c(=O)[nH]c2=O)O[C@@H]1COP(=O)(O)OP(=O)(O)OP(=O)(O)O", "note": "[3′-O-propargyl-dTTP, 3′-O-propargyl-2′-deoxythymidine-5′-triphosphate]", "values": [
      {"measurement": "amounts of the two populations of nucleic acids (primer length vs primer plus one base)", "setting": "[1]", "value": "approximately equal"},
      {"measurement": "incorporation at the 3′ end of the primer", "setting": "[1]", "value": "successful incorporation"},
      {"measurement": "generation of nucleic acid fragments terminated at base-specific positions", "setting": "[2]", "value": "generated a population of nucleic acid fragments having a range of sizes corresponding to the expected lengths"}
    ]}
  ]
}
